Results reported in patent US6525245B1, “Method for identifying components involved in signal transduction pathways in higher plants” (The Board of Regents of the University of Nebraska, priority 1999, dated 2003).

Legend:
[1] = tested on: AOX; settings: cited from earlier work; for effect on AOX transcription / effect on branched chain amino acid biosynthesis: Aubert et al. 1997
[2] = tested on: AOX1a promoter; experiment: Luciferase expression in excised leaves of AOX1a promoter::luciferase transgenic lines, exposure to film; assay type: cell-based, Arabidopsis thaliana; settings: for luciferase response to application: lines PZB-ALN 26 and 47
Experimental: Initial screening of the F1 plants was done by spraying excised leaves with 10 uM AA (FIG. 4A). The leaves were incubated for 4 hr in the light, then sprayed with luciferin, and exposed to autoradiographic film. […] Several pZB-ALN lines were used for imaging experiments employing a Hamamatsu photon-counting, CCD camera system (model C2400-75H).

[3] = tested on: AOX1a promoter; experiment: Dose-response of AOXP-driven luciferase expression in seedlings, photon-counting CCD camera; assay type: in vivo, Arabidopsis thaliana; settings: line pZB-ALN 8
Experimental: Seeds from these lines were sterilized and germinated on filter discs on standard growth agar in six-well plates and then grown at 20° C. and 66 uE of continuous light for 7 days (to eliminate the possibility of circadian rhythm effects). A Hamamatsu CCD camera system was used to quantify the levels of AOXP-driven luciferase expression. […] Plants were imaged immediately following transfer to induction plates, then returned to the growth chamber under 66 uE continuous light and 20° C.

[4] = tested on: Arabidopsis plants; experiment: Survival of Arabidopsis plants after treatment; assay type: in vivo
Experimental: In order for a screen involving application of antimycin A or sulfometuron methyl to succeed, plants must survive the screening procedure. […] Plants from line pZB-ALN 8 were used to produce the dose response curve shown in FIG. 6 were transferred to fresh growth plates (without antimycin A) after 36 h of antimycin A treatment. […] These plants remained green with healthy, expanded first true leaves and healthy roots and produced a normal-looking second set of true leaves.

antimycin A
effect on AOX protein and transcript ([1]; petunia cells, tobacco, Hensenula anomala): increases in AOX protein and transcript | luciferase expression versus untreated control leaves ([2]; 10 uM, 4 h after treatment, excised leaves, pZB-ALN and pZP-ALE lines, qualitative): higher luciferase expression | peak induction of luciferase expression over the negative control ([3]; 1.0 mM or 100 uM): about 17 fold | time after transfer until which peak induction level is kept ([3]; 1.0 mM or 100 uM): at least 10 h | time of peak induction after application ([3]; 1.0 mM or 100 uM): about 6 h | lowest concentration giving measurable induction [3]: 0.1 µM | survival of plants after treatment ([4]; line pZB-ALN 8, 0.1, 1.0, 10, 100 and 1000 uM, 36 h treatment, six days after treatment): survived without any apparent developmental alterations

COC(=O)c1ccccc1S(=O)(=O)NC(=O)Nc1nc(C)cc(C)n1 [sulfometuron methyl]
effect on AOX transcription [1]: increase in AOX transcription | effect on branched chain amino acid biosynthesis [1]: inhibit branched chain amino acid biosynthesis | luciferase expression ([2]; 5 nM, 24 h following treatment, some of the lines): higher luciferase expression | survival of plants after treatment ([4]; wild-type Arabidopsis plants sprayed with 5 uM or 5 nM): survive treatment

COc1nc(C)nc(NC(=O)NS(=O)(=O)c2ccccc2Cl)n1 [chlorsulfuron]
effect on AOX transcription [1]: increase in AOX transcription | effect on branched chain amino acid biosynthesis [1]: inhibit branched chain amino acid biosynthesis

O=C(O)c1ccccc1O [salicylic acid]
AOX transcript accumulation ([1]; Sauromatum guttatum and tobacco): accumulate | luciferase response to application [2]: lower, but definite response

O=C(O)CC(O)(CC(=O)O)C(=O)O [citrate]
AOX mRNA accumulation ([1]; increase in amount of citrate in tobacco cells): accumulate | luciferase response to application [2]: lower, but definite response
